From patent US11160875B2, “Therapeutic nanofiber hydrogels for local treatment of brain-related diseases” (THE JOHNS HOPKINS UNIVERSITY, priority 2015, dated 2021)
Non-standard residues stand in square brackets, D forms with d. Residues, ends and D or L forms follow the SMILES beside them. No end group written: not given here. ξ: configuration not given here. *: point of attachment. Paclitaxel(2'-OCO(CH2)3S) = CC(=O)O[C@H]1C(=O)[C@@]2(C)[C@H]([C@H](OC(=O)c3ccccc3)[C@]3(O)C[C@H](OC(=O)[C@H](OC(=O)CCCS*)[C@@H](NC(=O)c4ccccc4)c4ccccc4)C(C)=C1C3(C)C)[C@]1(OC(C)=O)CO[C@@H]1C[C@@H]2O; Palmitoyl = CCCCCCCCCCCCCCCC(=O)*; ξV = CC(C)C(N)C(=O)O

Legend:
[1] = Hydrogel formation of CPT-HKD nanofibers in DPBS; assay type: physicochemical
Experimental: (§5) (C) Cumulative release of drug from the hydrogel formed by CPT-HKD (1.2 wt %) over one month. […] (D) Cell viability of primary glioma cells derived from three patients treated by CPT-HKD of varying concentrations.
(§6) CPT-HKD was incubated with primary glioma cells derived from three patients to determine cytotoxicity (FIG. 18D).

[2] = Cumulative release of drug from CPT-HKD hydrogel; assay type: physicochemical
Experimental: as §5, §6

[3] = tested on: primary glioma cells derived from three patients; conditions: varying concentrations
Experimental: as §5, §6

implanted tumors = experiment: In vivo brain tumor resection model
Description: A) A cranial window (5 mm) was made at the same location of tumor implantation, and the tumor was resected with microscissors. A droplet of CPT nanofiber solution was placed in the resected area, forming hydrogels upon delivery. A methacrylate membrane was used to cover the skull defect.
A droplet of CPT-HKD nanofiber solution was placed in the resected area, forming hydrogels upon delivery. A methacrylate membrane was used to cover the skull defect.
Using the in vivo brain tumor resection model described above, mice with implanted tumors were treated with resection of the tumor alone or resection and addition of CPT-HKD hydrogel and the tumor site was subjected to BLI analysis at 1 and 2 weeks post-resection.
Using the in vivo brain tumor resection model described above, mice with implanted tumors were treated with resection of the tumor alone or resection and addition of CPT-HKD hydrogel for 1 month. After the test period, mouse brains were removed and sectioned in 10 μm thick sections and stained using H&E methods. Tumor area was determined by stereological analysis of consecutive 10 μm thick sections. p value was calculated by Mann-Whitney U (p=0.037).

[4] = tested on: U87 human glioblastoma cells; experiment: Cytotoxicity dose-response, SRB assay, U87; assay type: cell-based; conditions: U87, 48 h incubation
Experimental: (§1) FIGS. 16A-16B depict the cytotoxicity evaluation of PTX-buSS-FFFRGDR (SEQ ID NO: 1), PTX-buSS-VVVRGDR (SEQ ID NO: 2), and C16-FFFRGDR (SEQ ID NO: 1) against U87 human glioblastoma cells (A) and 965 human primary brain tumor cells (B). Cells were incubated with the PTX or conjugates for 48 h (U87) or 72 h (965) and cell viability was determined by SRB assay. Data are given as mean±s.d. (n=3).
(§2) U87 human glioblastoma cells were provided by Prof. Denis Wirtz's lab (Department of Chemical and Biomolecular Engineering, Johns Hopkins University). Primary human brain cancer cell line 965 was provided by Prof. Alfredo Quinones-Hinojosa of the Johns Hopkins Medical School. All cell lines were cultured according to providers' protocols. U87 human glioblastoma cells were grown in DMEM with 10% FBS and 1% antibiotics. Primary human brain cancer cell line 965 was grown in DEME/F12 with 2% Neuroplex, 1% antibiotics, 20 ng/mL hEGF and 20 ng/mL hFGF.
(§3) The cytotoxicity assays of PTX-FFFRGDR (SEQ ID NO: 1), PTX-VVVRGDR (SEQ ID NO: 2), C16-FFFRGDR (SEQ ID NO: 1) were determined using a dose-response study. A 96-well plate was seeded with cell sat a density of 5×10^3 cells/well and incubated at 37° C. for 24 h. The cells were then treated with varying concentrations of paclitaxel or conjugate in cell medium and incubated for a further 48 h (U87) or 72 h (primary cell lines). Cell viability was determined by sulforhodamine-B (SRB, Sigma Aldrich) assay according to the manufacturer's protocol. The data was fitted using the Hill equation function within the Igor Pro program and used to obtain the IC50 value.
(§4) The in vitro cytotoxicity of PTX-buSS-FFFRGDR (SEQ ID NO: 1) was assessed an compared to that of free PTX, PTX-buSS-VVVRGDR (SEQ ID NO: 2) and C16-FFFRGDR (SEQ ID NO: 1) against two brain tumor cell lines, including U87 human glioblastoma cell line and 965 primary human brain tumor cell line (FIG. 16). Cells were incubated for 48 h with varying drug concentrations and cell viability was determined using sulforhodamine B (SRB) assay. […]

[5] = tested on: 965 human primary brain tumor cells; experiment: Cytotoxicity dose-response, SRB assay, 965; assay type: cell-based; conditions: 965 primary cells, 72 h incubation per FIG. 16 legend
Experimental: as §1, §2, §3, §4

[6] = tested on: U87 human glioblastoma cells; experiment: Hydrogel drug release and cytotoxicity, live/dead cell staining; assay type: cell-based; conditions: U87, 24 h incubation with hydrogel, near-gel region 1 and peripheral region 2
Experimental: FIGS. 17A-17F show the in vitro drug release and cytotoxicity study of PTX-buSS-FFFRGDR (SEQ ID NO: 1), PTX-buSS-VVVRGDR (SEQ ID NO: 2), and C16-FFFRGDR (SEQ ID NO: 1) hydrogels against U87 human glioblastoma cells. Live/dead assay cell images after 24 h of incubation with blank culture media (A and D), PTX-buSS-FFFRGDR (SEQ ID NO: 1) (B and E), or C16-FFFRGDR (SEQ ID NO: 1) (C and F).
The in vitro drug release and cytotoxicity of PTX-buSS-FFFRGDR (SEQ ID NO: 1) was assessed and compared to that of C16-FFFRGDR (SEQ ID NO: 1) blank hydrogel against U87 human glioblastoma cells (FIG. 17). Cells were incubated for 24 h with PTX-loaded and PTX-free hydro-gels and cell viability was determined using live/dead cell staining method. Two sections along gradient decaying radius were taken to compare cell viability after treatment with different hydrogels.

[7] = Paclitaxel release study in PBS buffer with or without GSH; assay type: physicochemical; conditions: 37° C., 50 μM, presence or absence of 10 mM GSH
Experimental: FIGS. 15A-15D illustrate fluorescence measurements to determine the CMC value of PTX-buSS-FFFRGDR (SEQ ID NO: 1) (A) and PTX-buSS-VVVRGDR (SEQ ID NO: 2) (B) based on Nile Red encapsulation within the assembled nanostructures. Representative CD spectra (solid lines) and UV-vis spectra (dash lines) of 200 μM PTX-buSS-FFFRGDR (SEQ ID NO: 1), 200 μM PTX-buSS-VVVRGDR (SEQ ID NO: 2) and 200 μM. C16-FFFRGDR (SEQ ID NO: 1) (C). Paclitaxel release study of PTX-buSS-FFFRGDR (SEQ ID NO: 1) and PTX-buSS-VVVRGDR (SEQ ID NO: 2) in PBS buffer at 37° C. at 50 μM. Solutions were incubated in the presence or absence of 10 mM GSH. Data are given as mean±s.d. (n=3).
Since the release of the active compound is critical and tunable by altering nanofilaments morphologies, experiments to determine PTX release were carried out in PBS buffer at 37° C. in the presence or absence of 10 mM GSH (FIG. 15D).

Molecule: CPT-HKD (GVVQQHKD; also: camptothecin conjugated via buSS linker, site not given here)
- concentration at which nanofibers form a hydrogel [1]: higher than 0.4 wt %
- hydrogel shape retention ([2]; after one month): retained its shape after one month
- cumulative release of drug from the hydrogel ([2]; hydrogel 1.2 wt %, over one month): about 15 % of total bound drug
- cytotoxicity (cell viability) [3]: dose dependent cytotoxicity shown in all three cell lines
- BLI signal intensity versus resection only group (implanted tumors; 1 and 2 weeks post-resection, p=0.0076): significant lower intensity
- difference in survival versus resection only group (implanted tumors; Kaplan-Meier analysis, p=0.01): extension of one-week
- tumor area versus resection only group (implanted tumors; after 1 month of treatment, stereological analysis of 10 μm sections, p=0.037): Reduces Brain Tumor Area
- survival (Kaplan-Meier) (implanted tumors; resection plus hydrogel, resection only 35 days, p=0.01): 41 days

Molecule: CCCCCCCCCCCCCCCC(=O)N[C@@H](Cc1ccccc1)C(=O)N[C@@H](Cc1ccccc1)C(=O)N[C@@H](Cc1ccccc1)C(=O)N[C@@H](CCCNC(=N)N)C(=O)NCC(=O)N[C@@H](CC(=O)O)C(=O)N[C@@H](CCCNC(=N)N)C(=O)O [C16-FFFRGDR] (Palmitoyl-FFFRGDR-OH)
- in vitro cytotoxicity (cell viability) [4]: didn't show any significant toxicity
- in vitro cytotoxicity (cell viability) [5]: didn't show any significant toxicity
- cell viability by live/dead staining around the hydrogel [6]: non-toxicity against U87 cells in both regions

Molecule: CC(=O)N[C@@H](CSSCCCC(=O)O[C@@H](C(=O)O[C@H]1C[C@@]2(O)[C@@H](OC(=O)c3ccccc3)[C@@H]3[C@]4(OC(C)=O)CO[C@@H]4C[C@H](O)[C@@]3(C)C(=O)[C@H](OC(C)=O)C(=C1C)C2(C)C)[C@@H](NC(=O)c1ccccc1)c1ccccc1)C(=O)NCC(=O)N[C@H](C(=O)NC(C(=O)N[C@H](C(=O)N[C@@H](CCCNC(=N)N)C(=O)NCC(=O)N[C@@H](CC(=O)O)C(=O)N[C@@H](CCCNC(=N)N)C(=O)O)C(C)C)C(C)C)C(C)C (stereo partly shown) [PTX-buSS-VVVRGDR] (Ac-C(Paclitaxel(2'-OCO(CH2)3S))GV[ξV]VRGDR-OH)
- PTX release rate, with GSH versus without [7]: faster release rates under GSH conditions
- in vitro cytotoxicity (cell viability) [4]: near-identical toxicity to free PTX
- in vitro cytotoxicity (cell viability) [5]: near-identical toxicity to free PTX

Molecule: CC(=O)N[C@@H](CSSCCCC(=O)O[C@@H](C(=O)O[C@H]1C[C@@]2(O)[C@@H](OC(=O)c3ccccc3)[C@@H]3[C@]4(OC(C)=O)CO[C@@H]4C[C@H](O)[C@@]3(C)C(=O)[C@H](OC(C)=O)C(=C1C)C2(C)C)[C@@H](NC(=O)c1ccccc1)c1ccccc1)C(=O)N[C@@H](Cc1ccccc1)C(=O)N[C@@H](Cc1ccccc1)C(=O)N[C@@H](Cc1ccccc1)C(=O)N[C@@H](CCCNC(=N)N)C(=O)NCC(=O)N[C@@H](CC(=O)O)C(=O)N[C@@H](CCCNC(=N)N)C(=O)O [PTX-buSS-FFFRGDR] (Ac-C(Paclitaxel(2'-OCO(CH2)3S))FFFRGDR-OH)
- in vitro cytotoxicity (cell viability) [4]: near-identical toxicity to free PTX
- in vitro cytotoxicity (cell viability) [5]: near-identical toxicity to free PTX
